According to patent publication US9828348B2, “Benzimidazole derivatives and use thereof” (priority 2013, dated 2017):

Each compound was assayed against human Nav1.7 (Homo sapiens (Human), UniProt Q15858) (assay: FLIPR or FLIPR TETRA sodium dye assay with KCl and test article pre-incubation). Conditions: read-out: Nav1.7 Activity (μM) FLIPR assay IC50 (μM) ± SEM.
Type: cell-based

Sequence of human Nav1.7 (Q15858 with tags, fused parts or gaps limits assumed): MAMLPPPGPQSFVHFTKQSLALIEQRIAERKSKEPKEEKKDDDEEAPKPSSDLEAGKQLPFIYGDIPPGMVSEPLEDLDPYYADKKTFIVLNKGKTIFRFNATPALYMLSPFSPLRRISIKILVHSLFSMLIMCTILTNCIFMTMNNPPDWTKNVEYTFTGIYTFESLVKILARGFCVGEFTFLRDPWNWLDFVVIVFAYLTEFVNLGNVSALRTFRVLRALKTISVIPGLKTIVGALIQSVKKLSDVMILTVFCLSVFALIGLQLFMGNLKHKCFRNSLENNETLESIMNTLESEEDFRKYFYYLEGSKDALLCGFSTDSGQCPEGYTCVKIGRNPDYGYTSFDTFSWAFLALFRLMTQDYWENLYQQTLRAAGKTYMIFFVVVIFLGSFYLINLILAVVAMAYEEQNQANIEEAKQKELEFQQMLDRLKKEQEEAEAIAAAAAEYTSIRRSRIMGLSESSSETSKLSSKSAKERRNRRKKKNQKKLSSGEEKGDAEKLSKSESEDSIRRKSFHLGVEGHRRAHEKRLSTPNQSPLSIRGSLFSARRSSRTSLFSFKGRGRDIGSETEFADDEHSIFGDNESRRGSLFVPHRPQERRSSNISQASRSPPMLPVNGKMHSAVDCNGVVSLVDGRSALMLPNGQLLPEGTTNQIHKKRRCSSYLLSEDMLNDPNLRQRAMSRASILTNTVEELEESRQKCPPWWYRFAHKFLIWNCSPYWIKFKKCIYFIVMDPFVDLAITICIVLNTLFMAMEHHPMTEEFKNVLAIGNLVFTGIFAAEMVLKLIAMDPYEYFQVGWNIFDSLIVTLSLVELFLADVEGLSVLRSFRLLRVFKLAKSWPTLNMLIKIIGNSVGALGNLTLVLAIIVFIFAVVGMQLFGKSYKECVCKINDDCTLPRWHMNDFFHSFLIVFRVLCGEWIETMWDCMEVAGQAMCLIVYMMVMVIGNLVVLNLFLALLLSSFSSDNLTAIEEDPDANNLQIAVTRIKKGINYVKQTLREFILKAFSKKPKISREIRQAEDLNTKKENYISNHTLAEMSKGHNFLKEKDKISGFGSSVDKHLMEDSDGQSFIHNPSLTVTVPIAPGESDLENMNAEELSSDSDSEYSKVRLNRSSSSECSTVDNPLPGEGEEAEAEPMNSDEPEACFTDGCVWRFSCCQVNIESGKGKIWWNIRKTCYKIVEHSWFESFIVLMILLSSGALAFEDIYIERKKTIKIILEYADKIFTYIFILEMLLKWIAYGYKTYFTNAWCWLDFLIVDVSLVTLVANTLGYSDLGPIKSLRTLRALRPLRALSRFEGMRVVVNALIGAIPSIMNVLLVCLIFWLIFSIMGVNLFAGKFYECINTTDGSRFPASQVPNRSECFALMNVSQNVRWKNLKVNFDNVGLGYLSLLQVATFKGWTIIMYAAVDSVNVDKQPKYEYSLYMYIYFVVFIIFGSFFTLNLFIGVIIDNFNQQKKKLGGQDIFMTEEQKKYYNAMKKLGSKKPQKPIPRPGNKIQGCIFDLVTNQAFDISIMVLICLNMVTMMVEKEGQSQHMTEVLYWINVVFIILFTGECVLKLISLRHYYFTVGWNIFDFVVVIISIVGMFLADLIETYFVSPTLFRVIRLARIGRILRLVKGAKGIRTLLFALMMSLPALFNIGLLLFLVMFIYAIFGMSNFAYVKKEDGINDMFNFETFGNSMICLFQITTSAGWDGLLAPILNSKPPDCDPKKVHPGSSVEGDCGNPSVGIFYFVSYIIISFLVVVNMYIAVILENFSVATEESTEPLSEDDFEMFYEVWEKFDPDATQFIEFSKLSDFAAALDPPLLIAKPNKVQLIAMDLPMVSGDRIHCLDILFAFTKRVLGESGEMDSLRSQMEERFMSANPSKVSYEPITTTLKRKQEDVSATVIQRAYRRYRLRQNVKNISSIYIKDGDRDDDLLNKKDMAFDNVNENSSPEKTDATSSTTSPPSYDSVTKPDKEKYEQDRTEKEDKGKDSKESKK

Row | Structure (SMILES) | IC50 [µM]
1 | Cc1nnc(Cc2nc3ccccc3n2-c2ccc(Oc3ccc(F)cc3)cc2)[nH]1 [Compound 16, 1-(4-(4-fluorophenoxy)phenyl)-2-((5-methyl-4H-1,2,4-triazol-3-yl)methyl)-1H-benzo[d]imidazole] | 0.957 ± 0.092
2 | Fc1ccc(Oc2ccc(-n3c(-c4c[nH]cn4)nc4ccccc43)cc2)cc1 [Compound 11, 1-(4-(4-fluorophenoxy)phenyl)-2-(1H-imidazol-4-yl)-1H-benzo[d]imidazole] | 0.102 ± 0.022

Same assay, conditions: recombinant human Nav1.7 in HEK293 cells; CoroNa Green sodium dye, KCl pre-incubation; veratridine and scorpion venom agonists; read-out: Nav1.7 Activity (μM) FLIPR assay IC50 (μM) ± SEM

Row | Structure (SMILES) | IC50 [µM]
3 | Fc1ccc(Oc2ccc(-n3c(Cc4nnn[nH]4)nc4ccccc43)cc2)cc1 [Compound 15, 2-((1H-tetrazol-5-yl)methyl)-1-(4-(4-fluorophenoxy)phenyl)-1H-benzo[d]imidazole] | > 20
4 | CCN(CC)C(=O)CN1CCC(c2nc3ccccc3n2-c2ccc(Oc3ccc(F)cc3)cc2)CC1 [Compound 24, N,N-diethyl-2-(4-(1-(4-(4-fluorophenoxy)phenyl)-1H-benzo[d]imidazol-2-yl)piperidin-1-yl)acetamide] | 0.516 ± 0.029
5 | Cn1cc(Cl)c(-c2nc3ccccc3n2-c2ccc(Oc3ccc(F)cc3)cc2)n1 [Compound 10, 2-(4-chloro-1-methyl-1H-pyrazol-3-yl)-1-(4-(4-fluorophenoxy)phenyl)-1H-benzo[d]imidazole] | 0.313 ± 0.032
6 | Fc1ccc(Oc2ccc(-n3c(C4CCOCC4)nc4ccccc43)cc2)cc1 [Compound 9, 1-(4-(4-fluorophenoxy)phenyl)-2-(tetrahydro-2H-pyran-4-yl)-1H-benzo[d]imidazole] | 0.63 ± 0.05
7 | Fc1ccc(Oc2ccc(-n3c(CCN4CCCCC4)nc4ccccc43)cc2)cc1 [Compound 17, 1-(4-(4-fluorophenoxy)phenyl)-2-(2-(piperidin-1-yl)ethyl)-1H-benzo[d]imidazole] | 0.081 ± 0.009
8 | O=C1CC[C@@H](c2nc3ccccc3n2-c2ccc(Oc3ccc(F)cc3)cc2)N1 [Compound 14, (S)-5-(1-(4-(4-fluorophenoxy)-phenyl)-1H-benzo[d]imidazol-2-yl)pyrrolidin-2-one] | 0.571 ± 0.07
9 | NC(=O)CN1CCC[C@H]1c1nc2ccccc2n1-c1ccc(Oc2ccc(F)cc2)cc1 [Compound 25, (S)-2-(2-(1-(4-(4-fluorophenoxy)phenyl)-1H-benzo[d]imidazol-2-yl)pyrrolidin-1-yl)acetamide] | 1.22 ± 0.035
10 | NC(=O)CN1CCC(c2nc3ccccc3n2-c2ccc(Oc3ccc(F)cc3)cc2)CC1 [Compound 23, 2-(4-(1-(4-(4-fluorophenoxy)phenyl)-1H-benzo[d]imidazol-2-yl)piperidin-1-yl)acetamide] | 1.49 ± 0.225
